{"source": "patent US7728028B2", "about": "“Substituted imidazoline compounds” (Gruenenthal GmbH, priority 2005, dated 2010)", "data": [{"target": "T1, human μ-opiate receptor (Homo sapiens, UniProt P35372)", "T1 construct": "purchased PerkinElmer Life Sciences, Zaventem, Belgium RB-HOM; host or cells: CHO-K1 cells (recombinant expression; membrane preparation)", "T1 sequence (P35372 whole entry)": "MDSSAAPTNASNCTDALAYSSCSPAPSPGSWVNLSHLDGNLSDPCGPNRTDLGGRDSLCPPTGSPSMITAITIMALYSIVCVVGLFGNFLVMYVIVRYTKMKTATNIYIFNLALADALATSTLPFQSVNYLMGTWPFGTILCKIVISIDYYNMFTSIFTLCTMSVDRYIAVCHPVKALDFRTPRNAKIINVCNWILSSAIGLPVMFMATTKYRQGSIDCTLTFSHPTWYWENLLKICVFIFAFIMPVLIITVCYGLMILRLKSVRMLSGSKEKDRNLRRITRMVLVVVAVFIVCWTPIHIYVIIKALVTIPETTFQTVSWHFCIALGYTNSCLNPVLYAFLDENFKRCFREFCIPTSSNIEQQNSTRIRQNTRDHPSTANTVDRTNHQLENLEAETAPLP", "test": "Affinity for the human μ-opiate receptor ([3H]-naloxone displacement, SPA)", "settings": "Table 1, aldehydes; test substance 1 μmole/l; inhibition of specific [3H]-naloxone binding; CHO-K1 membranes; read-out: μ-Opioid receptor, % inhibition [1 μM]", "how_it_was_run": "(§1)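 CHO-K1 membranes expressing the receptor, incubated 90 min at room temperature with 1 nmol/l [3H]-naloxone and WGA-SPA beads in 50 mmol/l Tris-HCl with 0.06% BSA. Non-specific binding defined with 100 μmol/l naloxone. Value is % inhibition of specific binding at 1 μmol/l test substance.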", "units": {"inhibition at 1 µM": "%"}, "values": [{"smiles": "CN(C)C(c1cccc(F)c1)C1CCC(CC=O)CC1", "note": "(stereo not drawn) [Example 10b, {4-[dimethylamino-(3-fluorophenyl)-methyl]-cyclohexyl}-acetaldehyde]", "inhibition at 1 µM": 67}]}, {"target": "T1, human μ-opiate receptor", "test": "Affinity for the human μ-opiate receptor ([3H]-naloxone displacement, SPA)", "settings": "Table 2, Examples 11-161; test substance 1 μmole/l; inhibition of specific [3H]-naloxone binding; CHO-K1 membranes; read-out: μ-Opioid receptor, % inhibition [1 μM]", "how_it_was_run": "as §1", "units": {"inhibition at 1 µM": "%"}, "values": [{"smiles": "COC(=O)C1(CCSC)N=CN(Cc2ccccc2)C1CC1CCC(C(c2cccc(F)c2)N(C)C)CC1", "note": "(stereo not drawn) [Example 139, 1-benzyl-5-{4-[dimethylamino-(3-fluorophenyl)-methyl]-cyclohexylmethyl}-4-(2-methylsulfanyl-ethyl)-4,5-dihydro-1H-imidazole-4-carboxylic acid methyl ester]", "inhibition at 1 µM": 100}, {"smiles": "CCCC1(C(=O)OC)N=CN(CCc2ccccc2)C1CC1CCC(C(c2cccc(F)c2)N(C)C)CC1", "note": "(stereo not drawn) [Example 129, 5-{4-[dimethylamino-(3-fluorophenyl)-methyl]-cyclohexylmethyl}-1-phenethyl-4-propyl-4,5-dihydro-1H-imidazole-4-carboxylic acid methyl ester]", "inhibition at 1 µM": 93}, {"smiles": "COC(=O)CCC1(C(=O)OC)N=CN(C2CCCCC2)C1CC1CCC(C(c2cccc(F)c2)N(C)C)CC1", "note": "(stereo not drawn) [Example 147, 1-cyclohexyl-5-{4-[dimethylamino-(3-fluorophenyl)-methyl]-cyclohexylmethyl}-4-(2-methoxycarbonylethyl)-4,5-dihydro-1H-imidazole-4-carboxylic acid methyl ester]", "inhibition at 1 µM": 98}, {"smiles": "CCCN1C=NC(CCSC)(C(=O)OC)C1CC1CCC(C(CCc2ccccc2)N(C)C)CC1", "note": "(stereo not drawn) [Example 121, 5-[4-(1-dimethylamino-3-phenylpropyl)-cyclohexylmethyl]-4-(2-methylsulfanylethyl)-1-propyl-4,5-dihydro-1H-imidazole-4-carboxylic acid methyl ester]", "inhibition at 1 µM": 77}, {"smiles": "COC(=O)C1(C)N=CN(Cc2ccccc2)C1CC1CCC(C(CCc2ccccc2)N(C)C)CC1", "note": "(stereo not drawn) [Example 146, 1-benzyl-5-[4-(1-dimethylamino-3-phenylpropyl)-cyclohexylmethyl]-4-methyl-4,5-dihydro-1H-imidazole-4-carboxylic acid methyl ester]", "inhibition at 1 µM": 79}, {"smiles": "COC(=O)C1(C)N=CN(Cc2ccccc2)C1CC1CCC(C(c2ccc(F)cc2)N(C)C)CC1", "note": "(stereo not drawn) [Example 143, 1-benzyl-5-{4-[dimethylamino-(4-fluorophenyl)-methyl]-cyclohexylmethyl}-4-methyl-4,5-dihydro-1H-imidazole-4-carboxylic acid methyl ester]", "inhibition at 1 µM": 100}, {"smiles": "COC(=O)C1(CCSC)N=CN(Cc2ccccc2)C1CC1CCC(C(CCc2ccccc2)N(C)C)CC1", "note": "(stereo not drawn) [Example 145, 1-benzyl-5-[4-(1-dimethylamino-3-phenylpropyl)-cyclohexylmethyl]-4-(2-methylsulfanyl-ethyl)-4,5-dihydro-1H-imidazole-4-carboxylic acid methyl ester]", "inhibition at 1 µM": 79}, {"smiles": "CCCCN1C=NC(CSC)(C(=O)OC)C1C1CCC(C(c2cccc(F)c2)N(C)C)CC1", "note": "(stereo not drawn) [Example 66, 1-butyl-5-{4-[dimethylamino-(3-fluorophenyl)-methyl]-cyclohexyl}-4-methylsulfanylmethyl-4,5-dihydro-1H-imidazole-4-carboxylic acid methyl ester]", "inhibition at 1 µM": 89}, {"smiles": "COC(=O)C1(Cc2ccc(Cl)cc2)N=CN(CCc2ccccc2)C1C1CCC(C(c2cccc(F)c2)N(C)C)CC1", "note": "(stereo not drawn) [Example 38, 4-(4-chlorobenzyl)-5-{4-[dimethylamino-(3-fluorophenyl)-methyl]-cyclohexyl}-1-phenethyl-4,5-dihydro-1H-imidazole-4-carboxylic acid methyl ester]", "inhibition at 1 µM": 84}, {"smiles": "COC(=O)C1(CSCc2ccccc2)N=CN(C2CCCCC2)C1CC1CCC(C(CCc2ccccc2)N(C)C)CC1", "note": "(stereo not drawn) [Example 156, 4-benzylsulfanylmethyl-1-cyclohexyl-5-[4-(1-dimethylamino-3-phenylpropyl)-cyclohexylmethyl]-4,5-dihydro-1H-imidazole-4-carboxylic acid methyl ester]", "inhibition at 1 µM": 92}, {"smiles": "CCC(C)C1(C(=O)OC)N=CN(CCc2ccccc2)C1CC1CCC(C(c2cccc(F)c2)N(C)C)CC1", "note": "(stereo not drawn) [Example 81, 4-sec-butyl-5-{4-[dimethylamino-(3-fluorophenyl)-methyl]-cyclohexylmethyl}-1-phenethyl-4,5-dihydro-1H-imidazole-4-carboxylic acid methyl ester]", "inhibition at 1 µM": 76}, {"smiles": "CCCC1(C(=O)OC)N=CN(CCc2ccccc2)C1CC1CCC(C(CCc2ccccc2)N(C)C)CC1", "note": "(stereo not drawn) [Example 135, 5-[4-(1-dimethylamino-3-phenylpropyl)-cyclohexylmethyl]-1-phenethyl-4-propyl-4,5-dihydro-1H-imidazole-4-carboxylic acid methyl ester]", "inhibition at 1 µM": 85}, {"smiles": "CCCCN1C=NC(CCSC)(C(=O)OC)C1CC1CCC(C(CCc2ccccc2)N(C)C)CC1", "note": "(stereo not drawn) [Example 128, 1-butyl-5-[4-(1-dimethylamino-3-phenylpropyl)-cyclohexylmethyl]-4-(2-methylsulfanylethyl)-4,5-dihydro-1H-imidazole-4-carboxylic acid methyl ester]", "inhibition at 1 µM": 83}, {"smiles": "CCCC1(C(=O)OC)N=CN(C2CCCCC2)C1CC1CCC(C(CCc2ccccc2)N(C)C)CC1", "note": "(stereo not drawn) [Example 108, 1-cyclohexyl-5-[4-(1-dimethylamino-3-phenylpropyl)-cyclohexylmethyl]-4-propyl-4,5-dihydro-1H-imidazole-4-carboxylic acid methyl ester]", "inhibition at 1 µM": 86}, {"smiles": "COC(=O)C1(CSCc2ccccc2)N=CN(CCc2ccccc2)C1CC1CCC(C(c2cccc(F)c2)N(C)C)CC1", "note": "(stereo not drawn) [Example 82, 4-benzylsulfanylmethyl-5-{4-[dimethylamino-(3-fluorophenyl)-methyl]-cyclohexylmethyl}-1-phenethyl-4,5-dihydro-1H-imidazole-4-carboxylic acid methyl ester]", "inhibition at 1 µM": 95}, {"smiles": "COC(=O)CCC1(C(=O)OC)N=CN(Cc2ccccc2)C1CC1CCC(C(c2ccc(F)cc2)N(C)C)CC1", "note": "(stereo not drawn) [Example 87, 1-benzyl-5-{4-[dimethylamino-(4-fluorophenyl)-methyl]-cyclohexylmethyl}-4-(2-methoxycarbonylethyl)-4,5-dihydro-1H-imidazole-4-carboxylic acid methyl ester]", "inhibition at 1 µM": 95}, {"smiles": "COC(=O)CCC1(C(=O)OC)N=CN(Cc2ccccc2)C1CC1CCC(C(c2ccc(Cl)cc2)N(C)C)CC1", "note": "(stereo not drawn) [Example 99, 1-benzyl-5-{4-[(4-chlorophenyl)-dimethylaminomethyl]-cyclohexylmethyl}-4-(2-methoxycarbonylethyl)-4,5-dihydro-1H-imidazole-4-carboxylic acid methyl ester]", "inhibition at 1 µM": 100}, {"smiles": "CCCCN1C=NC(CSC)(C(=O)OC)C1CC1CCC(C(c2ccc(Cl)cc2)N(C)C)CC1", "note": "(stereo not drawn) [Example 89, 1-butyl-5-{4-[(4-chlorophenyl)-dimethylaminomethyl]-cyclohexylmethyl}-4-methylsulfanylmethyl-4,5-dihydro-1H-imidazole-4-carboxylic acid methyl ester]", "inhibition at 1 µM": 96}, {"smiles": "CCCN1C=NC(CCC(=O)OC)(C(=O)OC)C1C1CCC(C(c2ccc(Cl)cc2)N(C)C)CC1", "note": "(stereo not drawn) [Example 59, 5-{4-[(4-chlorophenyl)-dimethylaminomethyl]-cyclohexyl}-4-(2-methoxycarbonylethyl)-1-propyl-4,5-dihydro-1H-imidazole-4-carboxylic acid methyl ester]", "inhibition at 1 µM": 84}, {"smiles": "COC(=O)C1(CSCc2ccccc2)N=CN(C2CCCCC2)C1CC1CCC(C(c2ccc(Cl)cc2)N(C)C)CC1", "note": "(stereo not drawn) [Example 56, 4-benzylsulfanylmethyl-5-{4-[(4-chlorophenyl)-dimethylaminomethyl]-cyclohexylmethyl}-1-cyclohexyl-4,5-dihydro-1H-imidazole-4-carboxylic acid methyl ester]", "inhibition at 1 µM": 97}, {"smiles": "CCCN1C=NC(CCSC)(C(=O)OC)C1CC1CCC(C(c2cccc(F)c2)N(C)C)CC1", "note": "(stereo not drawn) [Example 112, 5-{4-[dimethylamino-(3-fluorophenyl)-methyl]-cyclohexylmethyl}-4-(2-methylsulfanyl-ethyl)-1-propyl-4,5-dihydro-1H-imidazole-4-carboxylic acid methyl ester]", "inhibition at 1 µM": 95}, {"smiles": "CCCCN1C=NC(CCSC)(C(=O)OC)C1CC1CCC(C(c2ccc(F)cc2)N(C)C)CC1", "note": "(stereo not drawn) [Example 126, 1-butyl-5-{4-[dimethylamino-(4-fluorophenyl)-methyl]-cyclohexylmethyl}-4-(2-methylsulfanyl-ethyl)-4,5-dihydro-1H-imidazole-4-carboxylic acid methyl ester]", "inhibition at 1 µM": 98}, {"smiles": "COC(=O)CCC1(C(=O)OC)N=CN(Cc2ccccc2)C1C1CCC(C(c2cccc(F)c2)N(C)C)CC1", "note": "(stereo not drawn) [Example 95, 1-benzyl-5-{4-[dimethylamino-(3-fluorophenyl)-methyl]-cyclohexyl}-4-(2-methoxycarbonylethyl)-4,5-dihydro-1H-imidazole-4-carboxylic acid methyl ester]", "inhibition at 1 µM": 94}, {"smiles": "CCCCN1C=NC(CCC)(C(=O)OC)C1CC1CCC(C(c2ccc(F)cc2)N(C)C)CC1", "note": "(stereo not drawn) [Example 125, 1-butyl-5-{4-[dimethylamino-(4-fluorophenyl)-methyl]-cyclohexylmethyl}-4-propyl-4,5-dihydro-1H-imidazole-4-carboxylic acid methyl ester]", "inhibition at 1 µM": 91}, {"smiles": "COC(=O)C1(C)N=CN(C2CCCCC2)C1CC1CCC(C(c2cccc(F)c2)N(C)C)CC1", "note": "(stereo not drawn) [Example 104, 1-cyclohexyl-5-{4-[dimethylamino-(3-fluorophenyl)-methyl]-cyclohexylmethyl}-4-methyl-4,5-dihydro-1H-imidazole-4-carboxylic acid methyl ester]", "inhibition at 1 µM": 93}, {"smiles": "COC(=O)C1(CCSC)N=CN(Cc2ccccc2)C1CC1CCC(C(c2ccc(F)cc2)N(C)C)CC1", "note": "(stereo not drawn) [Example 142, 1-benzyl-5-{4-[dimethylamino-(4-fluorophenyl)-methyl]-cyclohexylmethyl}-4-(2-methylsulfanyl-ethyl)-4,5-dihydro-1H-imidazole-4-carboxylic acid methyl ester]", "inhibition at 1 µM": 97}]}]}
